We go through 6 molecules from US20230314435A1, “MARKER OF CALCIUM-OVERLOAD-MEDIATED NEURONAL DEATH AND APPLICATION THEREOF” (Capital Medical University, priority 2022, published 2023).

The subject of assay [1] is Hela cells. Kind of assay: Western blot of autophagy markers (autophagy flux) in Hela wild-type and TLK2 KO cells. The assay is classed as cell-based. The following applies: 6 hours. The protocol: Hela cells were collected, and were added in an RIPA lysis buffer added with a protease inhibitor and PMSF (50 mM Tris, 150 mM NaCl, 1% Triton X-100, 1% sodium deoxytholate and 0.1% SDS) for lysis on ice for 30 min. Subsequently, ultrasonication was performed on ice under the conditions of 40 w 3 sec on/3 sec off for 1 minute, centrifugation was performed at 12,000 rpm in a centrifugal machine at 4° C. for 15 min, a supernatant was collected, diluted by an SDS sample-loading buffer and stewed at 95° C. for 5 min. […] of a protein sample was loaded, and gel electrophoresis was performed under a constant voltage of 80 V When bromophenol blue reached the bottom, membrane transfer was performed overnight at a constant current of 130 mA to transfer the protein from a gel onto a PVDF membrane. The membrane was blocked with 5% skim milk at room temperature for 1 hour, and was washed with TBST for three times, with 5 min for each time. A primary antibody properly diluted was incubated overnight at 4° C., and washed with TBST for three times, with 5 min for each time. An HRP secondary antibody was diluted in 1:10000, incubated at room temperature for 1 hour, and washed with TBST for three times, with 5 min for each time. Western blot was developed by ECL chemiluminescence.
In TLK2 KO cells, the LC3-II/LC3-I ratio was increased, and a P62 protein level was reduced (FIG. 14). […] The autophagy is a dynamic process, for which a level may be elevated accurately through a process of testing an autophagy flux. By using a drug to activate or block an autophagy pathway, the autophagy flux smoothness could be evaluated.
Raparnycin (Rapa) was used for activating the autophagy, and bafilomycin A1 (Baf A1) was used for inhibiting the autophagy. Cells were treated with Raparnycin (Rapa, 40 nM) and bafilomycin A1 (Baf A1, 100 nM) for 6 hours, respectively. […] This indicated smooth autophagy flux in the TLK2 KO cells.

Assay [2] concerns cell calcium-overload model. Briefly: Drug screening in a cell calcium-overload model (LDH assay). The assay is classed as cell-based. The following applies: screening of micro-molecule library, PMZ as positive control. From the text: The culture solution was removed, and the cells were washed with PBS. A fresh culture solution was used (it was recommended to use a low serum culture solution containing 1% serum or a suitable serum-free culture solution), and various culture wells were divided into the following groups: cell-free culture solution wells (background blank control wells), control cell wells not treated with a drug (sample control wells), cell wells used for subsequent lysis, not treated with a drug (maximum sample enzyme activity control wells), and drug-treated cell wells (drug-treated sample wells), and these wells were labeled properly.
Proper drug treatment was provided according to experiment requirements, for example, about 0-10 μL of a specific drug was added for stimulation; different concentrations and different treatment time could be set, and suitable drug solvent was required to be added to the control wells for continued culture as routine against the control. At 1 hour before a predetermined testing time point, the cell culture plate was taken out of a cell incubator, an LDH release reagent provided by a reagent kit was added to the “maximum sample enzyme activity control wells”, and the addition amount was equal to 10% of the volume of the original culture solution. After the addition of the LDH release reagent, the cells were blown repeatedly for several times for uniform mixing, and then were incubated in the cell incubator.
After the predetermined time expired, the cell culture plate was centrifuged with a multi-well plate centrifugal machine at 400 g for 5 min. 120 μL of a supernatant was respectively taken from each well and added to corresponding wells of a new 96-well plate for subsequent sample testing. 60 μL of an LDH test working solution was respectively added to each well. […] Then, absorbance was measured at 490 nm. […] Calculation was performed (the background blank control well absorbance was deducted from the measured absorbance of each group). […]

Assay [3] relates to TLK2. Briefly: Purified GST-TLK2 incubated with lysis buffer of ionomycin-treated (calcium-overload) Hela cells: Commassie staining, phos-tag SDS-PAGE, mass spectrometry. The assay is classed as biochemical. The procedure: TLK2 cDNA was cloned to a PGEX-6P-1 vector containing a GST tag, a recombinant plasmid was expressed into BL21 chemical competent cells for induced expression at 180 rpm at 20° C. for 20 hours under an induction condition of 0.5 mM IPTG. GST-TLK2 was purified according to the standard steps of Beyotime GST tag protein purification kit. Hela cells were treated with 17 μM ionomycin for 3 hours, and when a cell density reached 70%, the cells were collected. Lysis was performed in a lysis buffer (10 mM Tris, 150 mM NaCl, 2 mM EDTA and 0.5% TritonX-100). Centrifugation was performed at 12,000 rmp at 4° C. for 15 min, and a supernatant was collected. 3 μg of a GST-TLK2 purified protein and 200 μg of a cell lysis buffer were mixed, and placed overnight in a vertical shaker at 4° C. Subsequently, Glutathione. Sepharose 4B condensate beads were added, and rotation proceeded at room temperature for 1 hour. The mixture was washed with WB and IP lysis buffers for 6 times, each of which the mixture was centrifugated in a centrifugal machine at 2,000 rmp at 4° C. for 5 min. The product was diluted by an SDS sample-loading buffer and stewed at 95° C. for 5 min, or a TLK2 protein was cleaved overnight by PreScission Protease at 4° C. The final result was obtained by Commassie staining.
The purified TLK2 protein was incubated with a cell lysis buffer (inducing calcium overload) treated with ionomycin or a normal cell lysis buffer. […] Similar change also appeared after the TLK2 protein was incubated with a TLK2 KO cell lysis buffer treated with the ionomycin.
TLK2 cDNA was cloned to a PGEX-6P-1 vector containing a GST tag, a recombinant plasmid was expressed into BL21 chemical competent cells for induced expression at 180 rpm at 20° C. for 20 hours under an induction condition of 0.5 mM IPTG. GST-TLK2 was purified according to the standard steps of Beyotime GST tag protein purification kit. […]
Phos-tag was a functional molecule which could be in specific binding with phosphate ions. […] The content of the phosphorylated protein could be analyzed by the change in the migration rate. […]

Assay [4] deals with TLK2. Briefly: In-vitro kinase experiment (ATP consumption, MBP substrate). The assay is classed as biochemical. As to conditions: TLK2+Ionomycin group compared with normal treatment group. The procedure:
1 μL of ATP (0.2 mM), 1 μg of a TLK2 purified protein and 20 μg of a substrate were added to a 50 μL reaction system, the remaining volume was supplemented with a kinase buffer (10 mM Tris pH 7.5, 50 mM KCL, 10 mM MgCl2 and 1 mM DTT), and a reaction was performed at room temperature for 15 min. An MBP protein was taken as a positive control substrate, and a PGK1 protein was taken as a negative control substrate. 50 ul of a Kinase-Lumi™ superstrong chemiluminescence kinase assay reagent was added and uniformly mixed to have a reaction in the dark at room temperature for 10 min. Then, a multifunctional microplate reader was used for chemiluminescence testing.
TLK2 kinase activity was verified by an in-vitro kinase experiment. In the in-vitro kinase experiment, a myelin basic protein (MBP) could be used as a substrate for multiple kinases, a group to which a TLK2 (No TLK2) protein was not added was taken as a control, and in a normal treatment (TLK2+Control) and an ionomycin treatment group (TLK2+Ionomycin), the same amount of the TLK2 protein reacted with the same amount of the MBP protein. A reduced ATP level reflected the TLK2 kinase activity.

The mark [5] stands for this setting: wild-type Hela cells, Rapa 40 nM or Baf A1 100 nM.
Where [6] appears, read: lysis buffer of Hela cells treated with 17 μM ionomycin for 3 hours.

SMILES strings stand for the structures.

Turning to `CO[C@H]1C[C@@H]2CC[C@@H](C)[C@@](O)(O2)C(=O)C(=O)N2CCCC[C@H]2C(=O)O[C@H]([C@H](C)C[C@@H]2CC[C@@H](O)[C@H](OC)C2)CC(=O)[C@H](C)/C=C(\C)[C@@H](O)[C@@H](OC)C(=O)[C@H](C)C[C@H](C)/C=C/C=C/C=C/1C` [Rapa, Raparnycin], the P62 protein level entry in assay [1] (TLK2 KO Hela cells, Rapa 40 nM) is on record as “further reduce”; in assay [1] (setting [5]), “reduced”. The LC3-II/LC3-I ratio entry in assay [1] (setting [5]) was “increased”.
On to `CC[C@@H]1C(=O)N(C)c2cnc(Nc3ccc(C(=O)N[C@H]4CC[C@H](N5CCN(CC6CC6)CC5)CC4)cc3OC)nc2N1C(C)C` [Volasertib], for which the “calcium-overload injury inhibition activity” value in assay [2] is listed as “had calcium-overload injury inhibition activity”.
`CO/C1=C\C(C)=C\[C@@H](C)[C@@H](O)[C@@H](C)C/C(C)=C/C=C/[C@H](OC)[C@@H]([C@@H](C)[C@@H](O)[C@H](C)[C@@]2(O)C[C@@H](O)[C@H](C)[C@@H](C(C)C)O2)OC1=O` [Baf A1, bafilomycin A1]: the “autophagy activated by TLK2 KO” value in assay [1] (TLK2 KO Hela cells, Baf A1 100 nM) is “blocked”. For the same molecule, in assay [1] (setting [5]), the LC3-II/LC3-I ratio entry is on record as “elevated” and the P62 protein level entry is reported as “elevated”.
With `O=C(O[C@@H]1Cc2c(O)cc(O)cc2O[C@@H]1c1cc(O)c(O)c(O)c1)c1cc(O)c(O)c(O)c1` [Epigallocatechin Gallate], the “calcium-overload injury inhibition activity” value in assay [2] was “had calcium-overload injury inhibition activity”.
On to `C[C@H](CCC(=O)O)C[C@H](C)C[C@H](C)C(=O)/C=C(\O)[C@H](C)C[C@H](C)C/C=C/[C@@H](C)[C@@H](O)[C@@H](C)[C@@H](O)C[C@@H]1CC[C@@](C)([C@H]2CC[C@@](C)([C@@H](C)O)O2)O1` [ionomycin, Ionomycin], for which, in assay [3] (setting [6]), the “GST-TLK2 protein band (Commassie staining)” value is on record as “moved upward” and the “additional TLK2 phosphorylation sites compared with the control group (mass spectrometry)” value is 15. The “TLK2 phosphorylation (phos-tag SDS-PAGE)” value in assay [3] (normal and TLK2 KO cell lysis buffer after 17 μM ionomycin, 3 hours) is “could promote TLK2 phosphorylation”. In addition, the “TLK2 kinase activity (ATP consumption)” value in assay [4] is given as “could consume much ATP”.
Regarding `O=c1[nH]c(C2CCCN2)nc2c1oc1ccc(Cl)cc12` (stereo not shown) [XL413], the “calcium-overload injury inhibition activity” value in assay [2] was “had calcium-overload injury inhibition activity”.
